Experiments:
Mus musculus [1] = test: Oral analgesic activity was determined in mice by the acetylcholine-induced abdominal constriction assay upon ip administration of acetylcholine bromide 20 min following oral administration; type: functional; conditions: Abdomen
Mus musculus [2] = test: Oral analgesic activity was determined in mice by the acetylcholine-induced abdominal constriction assay upon ip administration of acetylcholine bromide 5 hours following oral administration; type: functional; conditions: Abdomen
Rattus norvegicus [3] = test: Percent change in average volume of pleural fluid at a dose of 4.0 mg/kg and 5-h response by Evans blue-carrageenan induced pleural effusion assay.; type: functional
Cyclooxygenase = molecular target: T1, Cyclooxygenase (Bos taurus, UniProt O62664+O62698)
T1 sequence (O62664 whole entry): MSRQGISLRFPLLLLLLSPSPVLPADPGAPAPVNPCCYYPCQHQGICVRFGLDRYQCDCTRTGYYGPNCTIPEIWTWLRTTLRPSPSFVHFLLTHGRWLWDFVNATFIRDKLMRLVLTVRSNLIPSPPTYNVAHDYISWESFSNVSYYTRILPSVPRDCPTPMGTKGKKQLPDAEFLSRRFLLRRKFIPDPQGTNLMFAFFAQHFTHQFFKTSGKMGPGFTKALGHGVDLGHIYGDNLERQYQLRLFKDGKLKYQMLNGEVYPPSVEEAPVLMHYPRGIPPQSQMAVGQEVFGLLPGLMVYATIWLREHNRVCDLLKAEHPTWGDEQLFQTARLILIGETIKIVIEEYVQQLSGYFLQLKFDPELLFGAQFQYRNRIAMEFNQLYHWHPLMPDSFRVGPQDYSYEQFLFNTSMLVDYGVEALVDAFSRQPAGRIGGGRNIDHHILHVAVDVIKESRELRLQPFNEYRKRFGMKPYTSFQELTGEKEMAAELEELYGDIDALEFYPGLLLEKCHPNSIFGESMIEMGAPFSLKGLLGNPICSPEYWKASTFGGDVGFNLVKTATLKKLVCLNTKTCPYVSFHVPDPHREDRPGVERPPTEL
T1 sequence (O62698 whole entry): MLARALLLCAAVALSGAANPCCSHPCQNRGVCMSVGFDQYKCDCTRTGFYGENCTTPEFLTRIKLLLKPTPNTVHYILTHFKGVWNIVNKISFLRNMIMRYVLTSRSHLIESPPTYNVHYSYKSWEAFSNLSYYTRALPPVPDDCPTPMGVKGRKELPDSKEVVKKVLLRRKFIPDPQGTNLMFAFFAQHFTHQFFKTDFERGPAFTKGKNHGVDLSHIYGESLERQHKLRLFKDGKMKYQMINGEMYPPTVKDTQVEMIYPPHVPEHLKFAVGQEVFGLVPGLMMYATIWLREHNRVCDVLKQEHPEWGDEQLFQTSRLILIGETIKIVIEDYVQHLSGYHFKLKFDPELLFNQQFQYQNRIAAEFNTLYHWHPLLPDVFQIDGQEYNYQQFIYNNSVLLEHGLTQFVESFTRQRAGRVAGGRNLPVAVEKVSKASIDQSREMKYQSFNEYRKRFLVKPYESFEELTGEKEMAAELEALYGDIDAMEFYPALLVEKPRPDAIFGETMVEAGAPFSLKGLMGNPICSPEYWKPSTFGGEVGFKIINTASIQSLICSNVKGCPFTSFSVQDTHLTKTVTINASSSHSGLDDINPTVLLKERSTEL
Description: Inhibition of prostaglandin G/H synthase obtained from bovine seminal vesicles.

Rattus norvegicus [4] = test: Percent change in average volume of pleural fluid at a dose 4 mg/kg of indomethacin and 5-h response is evaluated by Evans blue-carrageenan induced pleural effusion assay; type: functional
[5] = Chronic therapeutic index as ratio of potency in adjuvant-induced arthritis assay to that of potency in intestinal toxicity assay; conditions: read-out: Chronic TI
Rattus norvegicus [6] = test: Evaluated for chronic intestinal toxicity (multiple oral dose) in rats; type: organism-based; conditions: in vivo
[7] = Acute therapeutic index as ratio of potency in pleural effusion to that of potency in gastric toxicity assay; type: tissue-based; conditions: Stomach; read-out: Acute TI
Rattus norvegicus [8] = test: Percent change in average volume of pleural fluid at a dose of 100 mg/kg and 5-h response by Evans blue-carrageenan induced pleural effusion assay.; type: functional
Rattus norvegicus [9] = test: Acute gastric toxicity (single oral dose) in male fasted rats; type: organism-based, Stomach; conditions: in vivo
Rattus norvegicus [10] = species on record: Rattus norvegicus; test: Evaluated for chronic potency in adjuvant arthritis assay; type: functional
Rattus norvegicus [11] = species on record: Rattus norvegicus; test: Evaluated for acute potency in pleural effusion assay; type: functional
Rattus norvegicus [12] = test: Percent change in avg. volume of pleural fluid at a dose of 0.16 mg/kg and 5-h response is evaluated by Evans blue-carrageenan induced pleural effusion assay

Structure (SMILES) | ED50 (Mus musculus [1]) [mg/kg] | ED50 (Mus musculus [2]) [mg/kg] | Change (Rattus norvegicus [3]) [%] | IC50 (Cyclooxygenase) [nM] | Change (Rattus norvegicus [4]) [%] | selectivity ratio [5] | Intestinal toxicity (Rattus norvegicus [6]) | selectivity ratio [7] | Change (Rattus norvegicus [8]) [%] | Gastric toxicity (Rattus norvegicus [9]) | Potency (Rattus norvegicus [10]) | Potency (Rattus norvegicus [11]) | Change (Rattus norvegicus [12]) [%]
Nc1c(CC(=O)[O-])cc(Cl)cc1C(=O)c1ccc(I)cc1.[Na+] | 0.24 | 0.24 | -35 | 30 | -33 | 2.5 | 2.2 | 1.1 | -38 | 3.5 | 5.5 | 3.8 | 
Nc1c(CC(=O)[O-])cccc1C(=O)c1ccc(Cl)cc1Cl.[Na+] | 0.21 | > 0.3 | -37 | 600 | -33 |  | 0.6 |  | -41 | 1 | 4.2 | 5.3 | -16
Cc1cc(CC(=O)[O-])c(N)c(C(=O)c2ccc(Cl)cc2)c1.[Na+] | 0.78 | 0.65 | -32 | 700 | -35 |  | 0.4 |  | -38 | 0.27 | 0.63 | 1.7 | 0
Nc1c(CC(=O)[O-])cc(Cl)cc1C(=O)c1ccc(Br)cc1.[Na+] | 0.05 | 0.13 | -41 | 20 | -40 | 1.6 | 2.9 | 10 | -38 | 1.5 | 4.6 | 15 | 
Cc1ccc(C(=O)c2cc(Cl)cc(CC(=O)[O-])c2N)cc1.[Na+] | 0.1 | 0.43 | -35 | 20 | -40 |  |  |  | -44 | 0.7 | 0.1 | 1.6 | 
Nc1c(CC(=O)[O-])cc(F)cc1C(=O)c1ccc(Br)cc1.[Na+] | 0.18 | 0.29 | -28 | 40 | -25 | 1.2 | 1.9 | 4.9 | -28 | 1.7 | 2.2 | 8.4 | 
Nc1c(CC(=O)[O-])cc(Br)cc1C(=O)c1ccc(Br)cc1.[Na+] | > 0.32 | 0.2 | -30 | 800 | -33 |  | 1 |  | -34 | 1.1 | 2.5 | 4.2 | 
Nc1c(CC(=O)[O-])cc(F)cc1C(=O)c1ccc(Cl)cc1.[Na+] | 0.28 | 1.4 | -37 | 100 | -34 |  | 0.5 |  |  | 1.1 | 1.9 | 3.6 | -15
Nc1c(CC(=O)[O-])cc(Cl)cc1C(=O)c1ccc(Br)cc1Cl.[Na+] | 0.66 | 0.19 | -25 | 50 | -36 |  | 3.3 |  | -37 | 1.2 | 2.5 | 4.9 | 
Cc1cc(CC(=O)[O-])c(N)c(C(=O)c2ccc(Br)cc2)c1.[Na+] | 0.72 | 0.7 | -31 | 700 | -36 |  | 1.1 |  | -39 | 1.2 | 1 | 2.8 | 
Nc1c(CC(=O)[O-])cccc1C(=O)c1ccc(Br)cc1Cl.[Na+] | 0.12 | 1.6 | -26 | 50 | -32 |  | 1.6 |  | -37 | 5.6 | 7.4 | 1.6 | 
Nc1c(CC(=O)[O-])cccc1C(=O)c1ccccc1.[Na+] [AMFENAC SODIUM] | 0.11 | > 3 | -26 |  | -33 |  | 0.4 |  | -35 | 0.7 | 1.1 | 0.7 | -13
COc1ccc2c(c1)c(CC(=O)O)c(C)n2C(=O)c1ccc(Cl)cc1 [INDOMETHACIN] | 0.22 | 0.22 | -33 |  |  |  | 1 |  |  | 1 | 1 | 1 | -7
Cc1cc(CC(=O)O)n(C)c1C(=O)c1ccc(Cl)cc1 [ZOMEPIRAC] | 0.21 | 0.59 |  | 15000 |  | 1.1 | 0.63 | 3.1 |  | 0.25 | 0.67 | 0.78 | 
